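Grown in 96-well plates, cells were treated for 48 hours with each compound at five concentrations. Insufficient inhibition: endpoint recorded as highest concentration tested. GI50 is the concentration that inhibits growth by half.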 Calls of active or inactive are those of the source. Rule as the data show it: active = GI50 up to about 1.1 µM and inactive = higher. Where a SMILES comes first, the peptide text is derived from it. The star is where a group is joined. Boc = CC(C)(C)OC(=O)*; tBu = CC(C)(C)*
Columns and labels:
Assay in all cases: NCI-60 cell line screen, 48 h
[1] = tested on: HCT-15
[2] = tested on: RPMI-8226
[3] = tested on: NCI-H226
[4] = tested on: HOP-92
[5] = tested on: MDA-MB-231
[6] = tested on: UACC-62
[7] = tested on: LOX IMVI
[8] = tested on: SK-MEL-28
[9] = tested on: K562
[10] = tested on: PC-3
[11] = tested on: SF-539
[12] = tested on: SNB-19
[13] = tested on: OVCAR-8
[14] = tested on: A498
[15] = tested on: SF-268
[16] = tested on: DU-145
[17] = tested on: U-251
[18] = tested on: SK-OV-3
[19] = tested on: SNB-75

Row | SMILES | GI50 [1] [µM] | GI50 [2] | GI50 [3] | GI50 [4] | GI50 [5] | GI50 [6] | GI50 [7] | GI50 [8] | GI50 [9] | GI50 [10] | GI50 [11] | GI50 [12] | GI50 [13] | GI50 [14] | GI50 [15] | GI50 [16] | GI50 [17] | GI50 [18] | GI50 [19]
1 | CC1(C)C[C@H]2[C@H](O)C(CO)=C3C(=O)[C@@H](O)[C@]3(C)[C@H]2C1 | 52.5 | 38.4 µM (inactive) | > 100 µM (inactive) | > 100 µM (inactive) | > 100 µM (inactive) | > 100 µM (inactive) | 44.4 µM (inactive) | > 100 µM (inactive) | 36.6 µM (inactive) | > 100 µM (inactive) | 48.6 µM (inactive) | > 100 µM (inactive) | > 100 µM (inactive) | > 100 µM (inactive) | 87.1 µM (inactive) | > 100 µM (inactive) | > 100 µM (inactive) | > 100 µM (inactive) | –
2 | CCOC(=O)C(NC(=O)c1ccccc1)(Nc1ccc(S(=O)(=O)Nc2ncccn2)cc1)C(F)(F)F (configuration not stated) | > 100 | > 100 µM (inactive) | > 100 µM (inactive) | > 100 µM (inactive) | > 100 µM (inactive) | > 100 µM (inactive) | > 100 µM (inactive) | > 100 µM (inactive) | > 100 µM (inactive) | > 100 µM (inactive) | > 100 µM (inactive) | > 100 µM (inactive) | > 100 µM (inactive) | – | > 100 µM (inactive) | > 100 µM (inactive) | > 100 µM (inactive) | 0.513 µM (active) | > 100 µM (inactive)
3 | COc1cc(O)cc(O)c1C(=O)CC(Cl)(Cl)Cl | > 100 | 40.1 µM (inactive) | > 100 µM (inactive) | > 100 µM (inactive) | > 100 µM (inactive) | > 100 µM (inactive) | > 100 µM (inactive) | > 100 µM (inactive) | > 100 µM (inactive) | > 100 µM (inactive) | > 100 µM (inactive) | > 100 µM (inactive) | > 100 µM (inactive) | > 100 µM (inactive) | > 100 µM (inactive) | > 100 µM (inactive) | > 100 µM (inactive) | > 100 µM (inactive) | –
4 | COc1ccccc1Nc1nc2c([nH]1)c(=O)n(C)c(=O)n2C | > 10 | > 10 µM (inactive) | – | > 10 µM (inactive) | > 10 µM (inactive) | > 10 µM (inactive) | > 10 µM (inactive) | > 10 µM (inactive) | > 10 µM (inactive) | > 10 µM (inactive) | – | – | > 10 µM (inactive) | – | > 10 µM (inactive) | > 10 µM (inactive) | – | > 10 µM (inactive) | > 10 µM (inactive)
5 | Cc1ccc(C(=O)C#Cc2cn(C3CC(O)C(CO)O3)c(=O)[nH]c2=O)cc1 (configuration not stated) | > 100 | 67.8 µM (inactive) | > 100 µM (inactive) | 32.6 µM (inactive) | > 100 µM (inactive) | > 100 µM (inactive) | 95.9 µM (inactive) | > 100 µM (inactive) | – | > 100 µM (inactive) | > 100 µM (inactive) | > 100 µM (inactive) | > 100 µM (inactive) | – | > 100 µM (inactive) | > 100 µM (inactive) | > 100 µM (inactive) | > 100 µM (inactive) | > 100 µM (inactive)
6 | COc1ccc2c(c1OC)C(=O)N/C2=C\c1c(CCN(C)C)cc2c(c1OC)OCO2 | > 100 | > 100 µM (inactive) | > 100 µM (inactive) | > 100 µM (inactive) | 41.1 µM (inactive) | – | – | > 100 µM (inactive) | 68.7 µM (inactive) | > 100 µM (inactive) | > 100 µM (inactive) | > 100 µM (inactive) | > 100 µM (inactive) | – | > 100 µM (inactive) | > 100 µM (inactive) | > 100 µM (inactive) | > 100 µM (inactive) | < 0.01 µM (active)
7 | COc1cc(OC)c(OC)cc1/C=C/c1ccc2ccccc2n1 | 7.62 | 3.66 µM (inactive) | – | 5.57 µM (inactive) | > 10 µM (inactive) | 6.44 µM (inactive) | > 10 µM (inactive) | > 10 µM (inactive) | 5.33 µM (inactive) | 6.08 µM (inactive) | 3.53 µM (inactive) | – | > 10 µM (inactive) | – | > 10 µM (inactive) | > 10 µM (inactive) | > 10 µM (inactive) | > 10 µM (inactive) | 9.71 µM (inactive)
8 | CC(c1ccccc1)N1CCN(C(C)c2ccccc2)CC1 (configuration not stated) | 57.1 | 26.1 µM (inactive) | > 100 µM (inactive) | 31.6 µM (inactive) | > 100 µM (inactive) | 40.8 µM (inactive) | > 100 µM (inactive) | 29 µM (inactive) | 27.7 µM (inactive) | > 100 µM (inactive) | – | > 100 µM (inactive) | > 100 µM (inactive) | 77.4 µM (inactive) | > 100 µM (inactive) | > 100 µM (inactive) | > 100 µM (inactive) | – | –
9 | CNN1C(=O)c2c(C)c(C)c(C#N)c(N)c2C1=O | > 100 | > 100 µM (inactive) | > 100 µM (inactive) | > 100 µM (inactive) | > 100 µM (inactive) | > 100 µM (inactive) | > 100 µM (inactive) | > 100 µM (inactive) | > 100 µM (inactive) | > 100 µM (inactive) | > 100 µM (inactive) | > 100 µM (inactive) | > 100 µM (inactive) | – | > 100 µM (inactive) | > 100 µM (inactive) | > 100 µM (inactive) | – | 83.2 µM (inactive)
10 | COCCn1cnc2c(Cl)nc(Nc3ccccc3)nc21 | 22.9 | 86.9 µM (inactive) | > 100 µM (inactive) | – | 27.7 µM (inactive) | 25.6 µM (inactive) | 17 µM (inactive) | 36 µM (inactive) | 25.9 µM (inactive) | 22.3 µM (inactive) | > 100 µM (inactive) | 90.4 µM (inactive) | 23.9 µM (inactive) | 59.4 µM (inactive) | 39.4 µM (inactive) | > 100 µM (inactive) | 32.7 µM (inactive) | 37.2 µM (inactive) | 68.5 µM (inactive)
11 | CC(C)=Cc1cc(C)c2c(O)cc(C)c3c2c1C(C)=C(O)C3=O | 23 | 0.0257 µM (active) | 21.5 µM (inactive) | 7.85 µM (inactive) | 24.9 µM (inactive) | 20.5 µM (inactive) | 20.1 µM (inactive) | – | 13 µM (inactive) | 32.8 µM (inactive) | 28.1 µM (inactive) | 47.4 µM (inactive) | 38.1 µM (inactive) | 22.9 µM (inactive) | 21.1 µM (inactive) | 28.7 µM (inactive) | 32.7 µM (inactive) | 28.9 µM (inactive) | –
12 | NC(=S)Nc1c(S(N)(=O)=O)cc(S(N)(=O)=O)c(Cl)c1Cl | > 100 | > 100 µM (inactive) | > 100 µM (inactive) | > 100 µM (inactive) | > 100 µM (inactive) | > 100 µM (inactive) | > 100 µM (inactive) | > 100 µM (inactive) | > 100 µM (inactive) | > 100 µM (inactive) | 0.443 µM (active) | > 100 µM (inactive) | > 100 µM (inactive) | – | > 100 µM (inactive) | > 100 µM (inactive) | > 100 µM (inactive) | > 100 µM (inactive) | > 100 µM (inactive)
13 | CCOC(=O)c1nc2cc(C(F)(F)F)ccc2nc1Nc1ccc(C(=O)NC(C(=O)OCC)C(=O)OCC)cc1 | 26.5 | 11.5 µM (inactive) | 13.7 µM (inactive) | 27.4 µM (inactive) | 17.4 µM (inactive) | 11.5 µM (inactive) | 54.2 µM (inactive) | 14.1 µM (inactive) | 43.2 µM (inactive) | 22.9 µM (inactive) | – | 18.2 µM (inactive) | – | 25.5 µM (inactive) | 19.5 µM (inactive) | 51.6 µM (inactive) | 14 µM (inactive) | 22.2 µM (inactive) | –
14 | CCOC(=O)c1nc2ccc(C(F)(F)F)cc2[nH]c1=O | > 100 | > 100 µM (inactive) | > 100 µM (inactive) | > 100 µM (inactive) | > 100 µM (inactive) | > 100 µM (inactive) | > 100 µM (inactive) | > 100 µM (inactive) | > 100 µM (inactive) | > 100 µM (inactive) | > 100 µM (inactive) | > 100 µM (inactive) | > 100 µM (inactive) | > 100 µM (inactive) | > 100 µM (inactive) | > 100 µM (inactive) | > 100 µM (inactive) | > 100 µM (inactive) | –
15 | CCCCOc1ccc(S(=O)(=O)N/C(=N\O)Nc2ccc(Cl)cc2)cc1 | 14.6 | 21.1 µM (inactive) | 24 µM (inactive) | 4.79 µM (inactive) | 16.4 µM (inactive) | 15.2 µM (inactive) | 16 µM (inactive) | 18.2 µM (inactive) | 18.3 µM (inactive) | 15.8 µM (inactive) | 20.8 µM (inactive) | 15.2 µM (inactive) | 17.9 µM (inactive) | 13.4 µM (inactive) | 16 µM (inactive) | 15.9 µM (inactive) | 15.5 µM (inactive) | – | –
16 | CC(OC(C)(C)C)C(NC(=O)C(N)CCCCNC(=O)OC(C)(C)C)C(=O)NC(Cc1ccccc1)C(=O)O (configuration not stated) (H-Lys(Boc)-Thr(tBu)-Phe-OH; configuration not given here) | > 100 | > 100 µM (inactive) | > 100 µM (inactive) | > 100 µM (inactive) | > 100 µM (inactive) | > 100 µM (inactive) | > 100 µM (inactive) | > 100 µM (inactive) | > 100 µM (inactive) | > 100 µM (inactive) | > 100 µM (inactive) | > 100 µM (inactive) | > 100 µM (inactive) | – | > 100 µM (inactive) | > 100 µM (inactive) | > 100 µM (inactive) | 15.2 µM (inactive) | > 100 µM (inactive)

— ChEMBL document CHEMBL1201862, “PubChem BioAssay data set” (2004)
